Measurements as given in patent publication US11547681B2, “N-acylethanolamide derivatives and uses thereof” (ELIEM THERAPEUTICS, INC., priority 2016, dated 2023).

Columns and labels:
[1] = Pharmacokinetics of PEA after intravenous administration in male Sprague-Dawley rats; type: in vivo, Sprague-Dawley rat; settings: for AUC(0-t): AUClast; for MRT last: MRTlast
Protocol: Rats were housed one per cage. […] Each study group was dosing in triplicate.
Samples were maintained chilled throughout processing.
Clearance (CL) was calculated from dose/AUC.

[2] = system: patients with pain; settings: meta-analysis of 12 PEA pain studies; placebo 21%; cited from earlier work
[3] = in vivo; settings: male, Sprague-Dawley, rat, plasma, po, 10 mg/kg
Protocol: PEA was also dosed intravenously at 1 mg/kg. Blood samples were collected up to 8 hours post-dose, and PEA and PEA-prodrug plasma concentrations were determined with a qualified LC-MS/MS method. Pharmacokinetic analysis was conducted by a non-compartmental model using Phoenix WinNonlin v.6.4 software.
The IV dosing solution was prepared fresh on the day of dosing at 0.5 mg/mL in a vehicle comprised of 10% solutol HS15, 10% n-methylpyrrolidone (NMP), 10% polyethylene glycol 400 (PEG400), and 70% water. For PO dosing, torpac capsules were loaded with an appropriate amount of PEA, PEA-prodrug, or normast powder. […] The prodrug dose in group 5 was the maximum amount of powder that would fit into a single capsule.
The pharmacokinetics of PEA and the PEA-prodrug were evaluated in fasted male Sprague-Dawley rats. Rats were housed one per cage. Each rat was fitted with a jugular vein cannula (JVC) for blood collection. Rats intended for IV dosing were fitted with an additional JVC for dosing. Each study group was dosing in triplicate. Rats were fasted for a minimum of twelve hours prior to dosing. Food was returned at four hours post dosing. Animals had free access to water throughout the study.
Blood samples (˜300 μL) were collected from the rats via a JVC and placed into chilled polypropylene tubes containing sodium heparin as an anticoagulant, and 30 μL of 0.5 M citric acid. Samples were maintained chilled throughout processing. Blood samples were centrifuged at 4° C. and 3,000 g for 5 minutes. Plasma (˜150 μL) was then transferred to a chilled, labeled polypropylene tube containing 15 μL of 10% formic acid, placed on dry ice, and stored in a freezer maintained at −60° C. to −80° C.
Pharmacokinetic parameters were determined with Phoenix WinNonlin (v6.4) software using a non-compartmental model. Maximum plasma concentrations (C0) after IV dosing were estimated by extrapolation of the first two time points back to t=0. […] Area under the time concentration curve (AUC) was calculated using the linear trapezoidal rule with calculation to the last quantifiable data point, and with extrapolation to infinity if applicable. […] Mean residence time, MRT, was calculated by dividing the area under the moment curve (AUMC) by the AUC. Clearance (CL) was calculated from dose/AUC. Steady-state volume of distribution (Vss) was calculated from CL*MRT (mean residence time). Bioavailability was determined by dividing the individual PO dose normalized AUClast values by the average IV AUClast value. Any samples below the limit of quantitation were treated as zero for pharmacokinetic data analysis.
Measured concentrations of PEA in plasma samples were corrected by subtracting the concentration of PEA measured in the pre-dose samples. […] Any corrected values that were negative are reported as not determined (ND).

[4] = male, Sprague-Dawley, rat, in vivo, iv, 1 mg/kg, Mean
[5] = male, Sprague-Dawley, rat, in vivo, iv, 1 mg/kg, individual rats
[6] = male, Sprague-Dawley, rat, in vivo, iv, 1 mg/kg, Plasma concentration of PEA, Mean
[7] = male, Sprague-Dawley, rat, in vivo, iv, 1 mg/kg, Plasma concentration of PEA, individual rats

C0, Mean ([1]; PEA IV 1 mg/kg, extrapolated to t = 0): 251 ng/mL
Tmax ([1]; male, Sprague-Dawley, rat, in vivo, iv, 1 mg/kg): 0 h
AUC(0-t) [1, 4]: 62.1 ng·h/mL
AUC(0-t) [1, 5]: 53.3 ng·h/mL
AUC(0-inf) [1, 4]: 68.4 ng·h/mL
AUC(0-inf) [1, 5]: 57.6 ng·h/mL
clearance ([1]; male, Sprague-Dawley, rat, in vivo, iv, 1 mg/kg, CL (average clearance rate), Mean): 252 mL/min/kg
clearance ([1]; male, Sprague-Dawley, rat, in vivo, iv, 1 mg/kg, CL, individual rats): 290 mL/min/kg
MRT last [1, 4]: 24.1 min
MRT last [1, 5]: 23.9 min
concentration at 0.083 hr [1, 6]: 144 ng/mL
concentration at 0.25 hr [1, 6]: 48.2 ng/mL
concentration at 0.5 hr [1, 6]: 31.2 ng/mL
concentration at 1 hr [1, 6]: 11.2 ng/mL
concentration at 2 hr [1, 6]: 6.91 ng/mL
concentration at 0.083 hr [1, 7]: 122 ng/mL
concentration at 0.25 hr [1, 7]: 47.2 ng/mL
concentration at 0.5 hr [1, 7]: 27.5 ng/mL
concentration at 2 hr [1, 7]: 5.2 ng/mL
Vd ([1]; male, Sprague-Dawley, rat, in vivo, iv, 1 mg/kg, Vss (average volume of distribution), Mean): 9.12 ± 0.832 L/kg
Vd ([1]; male, Sprague-Dawley, rat, in vivo, iv, 1 mg/kg, Vss, individual rats): 10 L/kg
half-life ([1]; male, Sprague-Dawley, rat, in vivo, iv, 1 mg/kg, t1/2 (average half-life), Mean): 35.8 ± 9.9 min
half-life ([1]; male, Sprague-Dawley, rat, in vivo, iv, 1 mg/kg, t1/2, individual rats): 33.8 min
Cmax [3]: 5.3 ng/mL
Tmax [3]: 120 min
concentration at 1 hr [3]: 2.34 ng/mL
concentration at 2 hr [3]: 5.3 ng/mL
Structure (SMILES): CCCCCCCCCCCCCCCC(=O)NCCO [PEA, palmitoylethanolamide]
treated patients achieving VAS scores <=3 [2]: 67%
